# Patent publication US20260248879A1, “METHODS OF USING A GCG/GLP1 CO-AGONIST FOR THERAPY” (ELI LILLY AND COMPANY, priority 2022, published 2026)
# Values joined by “and” are separate entries in the source; they are usually repeats but may differ in a detail not shown here. Equal entries are not always repeated. Marks after values point to notes of the source that are not given here.
# System: patients with T2DM
# Assay: Example 1 study: Mixed Meal Tolerance Test (MMTT)
# Type: in vivo, human
# Description: In respect of Cohort 1, the MMTT is performed at baseline and on Day 80. In respect of Cohort 2, the MMTT is performed at baseline and on Day 108.
# Patients are provided breakfast meals for the MMTTs. Upon awakening, patients consume water to stay hydrated in order to mitigate problems with blood sample collections. Patients are provided individualized breakfast meals for the MMTTs. The total caloric content is approximately 30% of the daily estimated caloric need for weight. The macronutrient composition of the meals is targeted to provide approximately 50% of the calories from carbohydrate, 30% of the calories from fat, and 20% of the calories from protein. Patients are fasted (except for water) for at least 8 hours before each test meal and consume each meal within approximately 20 minutes. Test meals for each patient are kept consistent with respect to calorie and nutrient content across all MMTT assessments in the study.
# For both parts of the study, the patient is not allowed to consume water (apart from fluid provided with the meal) for approximately 3 hours post MMTT until BOD POD® measurement.
# While resident in the CRU, patients may not consume any food or caloric drinks other than that provided by the CRU. When not resident in the CRU, patients may resume their regular diet. The actual time of meal start and completion, total calories, and amount of meal (%) consumed in the MMTT are recorded.
# [1] = Cohort 1, escalated to 4.5 mg, Day 80
# [2] = Cohort 2, escalated to 10.0 mg, Day 108
compound,measurement,setting,value
CC(C)C[C@H](NC(=O)[C@H](CC(C)C)NC(=O)[C@H](Cc1c[nH]c2ccccc12)NC(=O)[C@H](CCC(=O)O)NC(=O)[C@@H](NC(=O)[C@H](Cc1ccccc1)NC(=O)[C@H](CCC(=O)O)NC(=O)[C@H](CCCCNC(=O)COCCOCCNC(=O)COCCOCCNC(=O)CC[C@H](NC(=O)CCCCCCCCCCCCCCCCCCC(=O)O)C(=O)O)NC(=O)[C@H](C)NC(=O)[C@H](CCCCN)NC(=O)[C@H](CCCCN)NC(=O)[C@H](CCC(=O)O)NC(=O)[C@H](CC(=O)O)NC(=O)[C@H](CC(C)C)NC(=O)[C@H](Cc1ccc(O)cc1)NC(=O)[C@H](CCCCN)NC(=O)[C@H](CO)NC(=O)[C@H](Cc1ccc(O)cc1)NC(=O)[C@H](CC(=O)O)NC(=O)[C@H](CO)NC(=O)[C@@H](NC(=O)[C@H](Cc1ccccc1)NC(=O)[C@@H](NC(=O)CNC(=O)[C@H](CCC(N)=O)NC(=O)C(C)(C)NC(=O)[C@@H](N)Cc1c[nH]cn1)[C@@H](C)O)[C@@H](C)O)C(C)C)C(=O)N[C@@H](CCC(=O)O)C(=O)NCC(=O)NCC(=O)N1CCC[C@H]1C(=O)N[C@@H](CO)C(=O)N[C@@H](CO)C(=O)NCC(N)=O [Compound 1],"C-peptide AUC(0-3 h) during MMTT, mean","Cohort 1 (1.5-4.5 mg QW), Day 80, baseline 4391.4",5850.1 pmol·h/L
same,"C-peptide AUC(0-3 h) during MMTT, change from baseline","Cohort 1, Day 80",1474.6* pmol · h/L
same,"Disposition index, change from baseline","Cohort 1, Day 80",−0.235
same,"First PH ISI-S, change from baseline","Cohort 1, Day 80",12090.422
same,"Glucagon AUC(0-3 h) during MMTT, change from baseline","Cohort 1, Day 80",-32.50 pmol·h/L
same,"Glucose AUC(0-3 h) during MMTT, change from baseline","Cohort 1, Day 80",-14.37 mmol·h/L
same,"HOMA2-B, change from baseline","Cohort 1, Day 80",22.971
same,"HOMA2-IR, change from baseline","Cohort 1, Day 80",−0.434
same,"ISI-M (Matsuda Index), change from baseline","Cohort 1, Day 80",0.237
same,"MMTT glucose AUC 0-3 hours, approximate decrease from baseline","Cohort 1, Day 80",~40%
same,"Oxyntomodulin AUC(0-3 h) during MMTT, change from baseline","Cohort 1, Day 80",-41.594 pmol·h/L
same,"Second PH ISI-S, change from baseline","Cohort 1, Day 80",2273.29
same,"Disposition index, mean","Cohort 1, Day 80, baseline 1.033",0.642
same,"ISI-M (Matsuda Index), mean","Cohort 1, Day 80, baseline 3.568",3.567
same,"HOMA2-IR, mean","Cohort 1, Day 80, baseline 4.704",4.271
same,"HOMA2-B, mean","Cohort 1, Day 80, baseline 15.791",38.762
same,"Glucose AUC(0-3 h) during MMTT, mean","Cohort 1, Day 80, baseline 43.06",25.76 mmol·h/L and 25.72 mmol·h/L
same,"Glucagon AUC(0-3 h) during MMTT, mean","Cohort 1, Day 80, baseline 64.98",27.93 pmol·h/L
same,"Oxyntomodulin AUC(0-3 h) during MMTT, mean","Cohort 1, Day 80, baseline 89.822",58.042 pmol·h/L
same,"Second PH ISI-S (second phase Stumvoll Index), mean","Cohort 1, Day 80, baseline −6253.26",−3634.241
same,"First PH ISI-S (first phase Stumvoll Index), mean","Cohort 1, Day 80, baseline −33534.1",−19605.805
same,"MMTT C-peptide AUC 0-3 hours, approximate increase from baseline",[1],~33%
same,"MMTT glucagon AUC 0-3 hours, approximate decrease from baseline",[1],~57%
same,"MMTT insulin AUC 0-3 hours, approximate increase from baseline",[1],~51%
same,Matsuda index (ISI-M) versus baseline,[1],no change from baseline
same,MMTT insulin mean area under the curve 0-3 hours,"Cohort 1, escalated to 4.5 mg, Day 80, baseline 125.233",189.435 h*mIU/L
same,"C-peptide AUC(0-3 h) during MMTT, mean","Cohort 2 (2-10 mg QW), Day 108, baseline 3604.1",3147.4 pmol·h/L
same,"C-peptide AUC(0-3 h) during MMTT, change from baseline","Cohort 2, Day 108",-897.4 pmol·h/L
same,"Disposition index, change from baseline","Cohort 2, Day 108",−0.198
same,"First PH ISI-S (first phase Stumvoll Index), mean","Cohort 2, Day 108",−19372.347
same,"First PH ISI-S, change from baseline","Cohort 2, Day 108",11985.334
same,"Glucagon AUC(0-3 h) during MMTT, change from baseline","Cohort 2, Day 108",-40.55 pmol·h/L
same,"Glucose AUC(0-3 h) during MMTT, change from baseline","Cohort 2, Day 108",-15.73 mmol·h/L
same,"HOMA2-B, change from baseline","Cohort 2, Day 108",3.824
same,"HOMA2-IR, change from baseline","Cohort 2, Day 108",−1.071
same,"ISI-M (Matsuda Index), change from baseline","Cohort 2, Day 108",5.905
same,"Oxyntomodulin AUC(0-3 h) during MMTT, change from baseline","Cohort 2, Day 108",-49.843 pmol·h/L
same,"Second PH ISI-S, change from baseline","Cohort 2, Day 108",2252.292
same,"Disposition index, mean","Cohort 2, Day 108, baseline 1.276",1.265
same,"HOMA2-IR, mean","Cohort 2, Day 108, baseline 2.7",1.325
same,"ISI-M (Matsuda Index), mean","Cohort 2, Day 108, baseline 4.616",10.7
same,"HOMA2-B, mean","Cohort 2, Day 108, baseline 9.108",12.077
same,"Glucose AUC(0-3 h) during MMTT, mean","Cohort 2, Day 108, baseline 38.27",23.74 mmol·h/L
same,"Glucagon AUC(0-3 h) during MMTT, mean","Cohort 2, Day 108, baseline 39.89",7.61 pmol·h/L
same,"Oxyntomodulin AUC(0-3 h) during MMTT, mean","Cohort 2, Day 108, baseline 124.741",66.077 pmol·h/L
same,"Second PH ISI-S (second phase Stumvoll Index), mean","Cohort 2, Day 108, baseline −5889.19",−3593.001
same,"MMTT C-peptide AUC 0-3 hours, approximate decrease from baseline",[2],~13%
same,"MMTT glucagon AUC 0-3 hours, approximate decrease from baseline",[2],~81%
same,"MMTT glucose AUC 0-3 hours, approximate decrease from baseline",[2],~38%
same,"MMTT insulin AUC 0-3 hours, approximate decrease from baseline",[2],~10%
same,"Matsuda index (ISI-M), approximate increase from baseline",[2],approximately 132%
same,MMTT insulin area under the curve 0-3 hours,"Cohort 2, escalated to 10.0 mg, Day 108, baseline 77.692",69.847 h*mIU/L
same,sMMTT total cholesterol levels,Cohort 2 doses (FIG. 7b),substantially reduced
same,sMMTT HDL cholesterol levels,Cohort 2 doses (FIG. 7e),substantially reduce
same,sMMTT LDL cholesterol levels,Cohort 2 doses (FIG. 7f),substantially reduce
same,sMMTT triglyceride levels,Cohort 2 doses (FIG. 7h),substantially reduce
same,reduction of glucagon secretion from baseline in response to mixed meals,dose up to 4.5 mg,greater than 50%
same,reduction of glucagon secretion from baseline in response to mixed meals,dose up to 10 mg,greater than 80%
